# Reference: patent US10758534B2 (Vertex Pharmaceuticals Incorporated, priority 2014, dated 2020)
# Target: T1, F508del (Homo sapiens, UniProt P13569, DEL508-508)
# T1 construct: expressed in transfected cells
# Assay: Protocol 1: membrane potential optical assay (FLIPR III, voltage sensing dye), identification of potentiator compounds
# Type: cell-based
# Settings: Table 3, compounds of Table 1
# How it was run: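 NIH3T3 F508del cells, 27° C × 24 hrs; compound/DMSO pretreat → redistribution dye load → single forskolin addition with Cl⁻ gradient (gluconate-substituted bath, HEPES pH 7.4). FLIPR III membrane-potential fluorescence read.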
# T1 sequence (P13569 with tags, fused parts or gaps DEL508-508): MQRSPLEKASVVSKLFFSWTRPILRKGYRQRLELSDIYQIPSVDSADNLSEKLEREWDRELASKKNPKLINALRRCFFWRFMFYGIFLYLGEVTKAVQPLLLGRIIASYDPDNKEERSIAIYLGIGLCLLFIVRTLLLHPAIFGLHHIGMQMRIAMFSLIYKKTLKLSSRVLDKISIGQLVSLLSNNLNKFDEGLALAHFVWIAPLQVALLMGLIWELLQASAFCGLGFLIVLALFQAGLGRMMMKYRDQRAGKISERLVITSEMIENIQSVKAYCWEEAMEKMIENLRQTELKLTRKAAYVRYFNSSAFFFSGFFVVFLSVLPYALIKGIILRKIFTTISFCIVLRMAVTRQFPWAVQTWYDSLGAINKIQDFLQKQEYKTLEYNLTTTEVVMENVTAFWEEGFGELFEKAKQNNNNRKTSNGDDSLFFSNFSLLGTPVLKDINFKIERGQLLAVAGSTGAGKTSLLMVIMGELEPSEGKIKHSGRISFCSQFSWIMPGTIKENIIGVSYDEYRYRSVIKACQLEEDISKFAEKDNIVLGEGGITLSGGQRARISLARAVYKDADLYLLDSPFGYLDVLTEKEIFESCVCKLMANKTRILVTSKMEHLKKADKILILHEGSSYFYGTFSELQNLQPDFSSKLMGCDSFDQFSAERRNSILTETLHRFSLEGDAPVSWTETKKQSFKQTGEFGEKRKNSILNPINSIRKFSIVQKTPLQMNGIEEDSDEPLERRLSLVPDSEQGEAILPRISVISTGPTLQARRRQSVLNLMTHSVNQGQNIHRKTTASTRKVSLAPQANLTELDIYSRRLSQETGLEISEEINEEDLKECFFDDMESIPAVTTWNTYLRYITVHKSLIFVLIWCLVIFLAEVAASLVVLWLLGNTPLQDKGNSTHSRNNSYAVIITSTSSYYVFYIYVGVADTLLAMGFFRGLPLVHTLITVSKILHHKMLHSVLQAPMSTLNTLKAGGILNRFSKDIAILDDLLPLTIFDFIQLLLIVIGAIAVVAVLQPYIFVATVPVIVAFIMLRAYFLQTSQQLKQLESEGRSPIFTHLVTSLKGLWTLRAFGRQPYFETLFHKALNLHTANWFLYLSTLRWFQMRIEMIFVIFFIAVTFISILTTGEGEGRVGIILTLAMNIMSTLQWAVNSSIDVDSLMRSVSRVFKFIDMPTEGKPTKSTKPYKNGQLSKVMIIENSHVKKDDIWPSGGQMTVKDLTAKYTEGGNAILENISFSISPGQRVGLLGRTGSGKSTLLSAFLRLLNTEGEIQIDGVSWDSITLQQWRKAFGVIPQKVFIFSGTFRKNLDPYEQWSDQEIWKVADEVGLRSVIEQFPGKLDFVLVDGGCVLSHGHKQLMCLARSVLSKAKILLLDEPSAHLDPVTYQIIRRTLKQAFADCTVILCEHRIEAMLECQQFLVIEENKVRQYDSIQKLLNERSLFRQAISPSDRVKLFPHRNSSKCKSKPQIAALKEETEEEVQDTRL
row,Structure (SMILES),EC30
1,"Cc1cc(C)c(Oc2nc(C(C)(C)C)ccc2C(=O)N=S(N)(=O)c2cccc(N)n2)c(C)c1 (stereo not shown) [Compound 1481, N-[amino-(6-amino-2-pyridyl)-oxo-$1^6-sulfanylidene]-6-tert-butyl-2-(2,4,6-trimethylphenoxy)pyridine-3-carboxamide]",+++ (“+++” means <3 uM)
2,"COc1cc(C)cc(S(=O)(=O)NC(=O)c2ccc(-c3cc(F)cc(OCC(C)C)c3)nc2N2C[C@@H](C)CC2(C)C)n1 [Compound 1482, 6-(3-fluoro-5-isobutoxy-phenyl)-N-[(6-methoxy-4-methyl-2-pyridyl)sulfonyl]-2-[(4S)-2,2,4-trimethylpyrrolidin-1-yl]pyridine-3-carboxamide]",+++ (“+++” means <3 uM)
3,"COc1cccc(S(=O)(=O)NC(=O)c2ccc(-c3cc(F)cc(OCC(C)C)c3)nc2N2C[C@@H](C)CC2(C)C)n1 [Compound 1483, 6-(3-fluoro-5-isobutoxy-phenyl)-N-[(6-methoxy-2-pyridyl)sulfonyl]-2-[(4S)-2,2,4-trimethylpyrrolidin-1-yl]pyridine-3-carboxamide]",+++ (“+++” means <3 uM)
4,"Cc1cc(C)c(Oc2nc(C(C)C(C)C)ccc2C(=O)NS(=O)(=O)c2cccc(N)n2)c(C)c1 (stereo not shown) [Compound 1486, N-[(6-amino-2-pyridyl)sulfonyl]-6-(1,2-dimethylpropyl)-2-(2,4,6-trimethylphenoxy)pyridine-3-carboxamide]",+++ (“+++” means <3 uM)
5,"Cc1cc(C)c(Oc2nc(C3CC(=O)CC(C)(C)C3)ccc2C(=O)NS(=O)(=O)c2cccc(N)n2)c(C)c1 (stereo not shown) [Compound 1492, N-[(6-amino-2-pyridyl)sulfonyl]-6-(3,3-dimethyl-5-oxo-cyclohexyl)-2-(2,4,6-trimethylphenoxy)pyridine-3-carboxamide]",++ (“++” means between 3 uM and 10 uM)
6,"CC(C)COc1cc(F)cc(-c2ccc(C(=O)NS(=O)(=O)c3cccc(N)n3)c(C3=CCC(C)(C)CC3)n2)c1 [Compound 1493, N-[(6-amino-2-pyridyl)sulfonyl]-2-(4,4-dimethylcyclohexen-1-yl)-6-(3-fluoro-5-isobutoxy-phenyl)pyridine-3-carboxamide]",+++ (“+++” means <3 uM)
7,"Cc1cc(C)c(Oc2nc(N3[C@H](C)CC[C@@H]3C)ccc2C(=O)NS(=O)(=O)c2cccc(N)n2)c(C)c1 [Compound 1494, N-[(6-amino-2-pyridyl)sulfonyl]-6-[(2R,5S)-2,5-dimethylpyrrolidin-1-yl]-2-(2,4,6-trimethylphenoxy)pyridine-3-carboxamide]",+++ (“+++” means <3 uM)
8,"Cc1nccc(-c2cccc(S(=O)(=O)NC(=O)c3cc(C(C)(C)C)nn3Cc3c(C)cccc3C)c2)n1 [Compound 1496, 5-tert-butyl-2-[(2,6-dimethylphenyl)methyl]-N-[3-(2-methylpyrimidin-4-yl)phenyl]sulfonyl-pyrazole-3-carboxamide]",+++ (“+++” means <3 uM)
9,"CC(C)COc1cc(F)cc(-c2ccc(C(=O)NS(=O)(=O)c3cccc(N)n3)c(N3CC(C)CC3(C)C)c2F)c1 (stereo not shown) [Compound 1497, N-[(6-amino-2-pyridyl)sulfonyl]-3-fluoro-4-(3-fluoro-5-isobutoxy-phenyl)-2-(2,2,4-trimethylpyrrolidin-1-yl)benzamide]",+++ (“+++” means <3 uM)
10,"CCOc1cccc2c1CN(Cc1c(C)cccc1C)C2(C)C(=O)NS(=O)(=O)c1cccc(N)n1 (stereo not shown) [Compound 1498, N-[(6-amino-2-pyridyl)sulfonyl]-2-[(2,6-dimethylphenyl)methyl]-4-ethoxy-1-methyl-isoindoline-1-carboxamide]",+++ (“+++” means <3 uM)
11,"CC(C)COc1cc(F)cc(-c2ccc(C(=O)NS(=O)(=O)c3cccc(N)n3)c(OCC3CCOC3)n2)c1 (stereo not shown) [Compound 1499, N-[(6-amino-2-pyridyl)sulfonyl]-6-(3-fluoro-5-isobutoxy-phenyl)-2-(tetrahydrofuran-3-ylmethoxy)pyridine-3-carboxamide]",++ (“++” means between 3 uM and 10 uM)
12,"Cc1cccc(C)c1Cn1nc(-c2coc3ccccc3c2=O)cc1C(=O)NS(=O)(=O)c1ccccc1 [Compound 1501, N-(benzenesulfonyl)-2-[(2,6-dimethylphenyl)methyl]-5-(4-oxochromen-3-yl)pyrazole-3-carboxamide]",+++ (“+++” means <3 uM)
13,"CC(C)COc1cc(F)cc(-c2ccc(C(=O)NS(=O)(=O)c3cccc(N)n3)c(C3=CC(C)(C)CC3(C)C)n2)c1 [Compound 1502, N-[(6-amino-2-pyridyl)sulfonyl]-6-(3-fluoro-5-isobutoxy-phenyl)-2-(3,3,5,5-tetramethylcyclopenten-1-yl)pyridine-3-carboxamide]",+++ (“+++” means <3 uM)
14,"CC(C)CN(C)c1ccc(-c2ccc(C(=O)NS(=O)(=O)c3cccc(N)n3)c(N3[C@H](C)CC[C@@H]3C)n2)cn1 [Compound 1506, N-[(6-amino-2-pyridyl)sulfonyl]-2-[(2S,5R)-2,5-dimethylpyrrolidin-1-yl]-6-[6-[isobutyl(methyl)amino]-3-pyridyl]pyridine-3-carboxamide]",+++ (“+++” means <3 uM)
15,"CCOc1cccc2c1CN(Cc1c(C)cc(C)cc1C)C2(C)C(=O)NS(=O)(=O)c1ccccc1O (stereo not shown) [Compound 1509, 4-ethoxy-N-(2-hydroxyphenyl)sulfonyl-1-methyl-2-[(2,4,6-trimethylphenyl)methyl]isoindoline-1-carboxamide]",+++ (“+++” means <3 uM)

# Other lines, results leading:
row,EC30,Structure (SMILES)
1,+++ (“+++” means <3 uM),"C[C@@H]1CN(c2nc(C(C)(C)C)c(/C=C/C3CCCCC3)cc2C(=O)NS(=O)(=O)c2cccc(N)n2)C(C)(C)C1 [Compound 1484, N-[(6-amino-2-pyridyl)sulfonyl]-6-tert-butyl-5-[(E)-2-cyclohexylvinyl]-2-[(4S)-2,2,4-trimethylpyrrolidin-1-yl]pyridine-3-carboxamide]"
2,+++ (“+++” means <3 uM),"CC1CN(c2nc(C(C)(C)C)c(C3=CCCCO3)cc2C(=O)NS(=O)(=O)c2cccc(N)n2)C(C)(C)C1 (stereo not shown) [Compound 1485, N-[(6-amino-2-pyridyl)sulfonyl]-6-tert-butyl-5-(3,4-dihydro-2H-pyran-6-yl)-2-(2,2,4-trimethylpyrrolidin-1-yl)pyridine-3-carboxamide]"
3,+++ (“+++” means <3 uM),"CC1CN(c2nc(C(C)(C)C)c(C3=COCCC3)cc2C(=O)NS(=O)(=O)c2cccc(N)n2)C(C)(C)C1 (stereo not shown) [Compound 1487, N-[(6-amino-2-pyridyl)sulfonyl]-6-tert-butyl-5-(3,4-dihydro-2H-pyran-5-yl)-2-(2,2,4-trimethylpyrrolidin-1-yl)pyridine-3-carboxamide]"
4,+++ (“+++” means <3 uM),"CCOc1cc(C)cc(-c2ccc(C(=O)NS(=O)(=O)c3cccc(N)n3)c(N3C[C@@H](C)CC3(C)C)n2)c1 [Compound 1488, N-[(6-amino-2-pyridyl)sulfonyl]-6-(3-ethoxy-5-methyl-phenyl)-2-[(4S)-2,2,4-trimethylpyrrolidin-1-yl]pyridine-3-carboxamide]"
5,+++ (“+++” means <3 uM),"CC(C)C(C)c1ccc(C(=O)NS(=O)(=O)c2cccc(N)n2)c(N2C[C@@H](C)CC2(C)C)n1 (stereo partly drawn) [Compound 1489, N-[(6-amino-2-pyridyl)sulfonyl]-6-(1,2-dimethylpropyl)-2-[(4S)-2,2,4-trimethylpyrrolidin-1-yl]pyridine-3-carboxamide]"
6,+++ (“+++” means <3 uM),"CCOC(=O)/C=C/c1cc(C(=O)NS(=O)(=O)c2cccc(N)n2)c(N2C[C@@H](C)CC2(C)C)nc1C(C)(C)C [Compound 1490, Ethyl (E)-3-[5-[(6-amino-2-pyridyl)sulfonylcarbamoyl]-2-tert-butyl-6-[(4S)-2,2,4-trimethylpyrrolidin-1-yl]-3-pyridyl]prop-2-enoate]"
7,++ (“++” means between 3 uM and 10 uM),"CC(C)Oc1ccc(-c2nc(N3C[C@H](C)CC3(C)C)ccc2C(=O)NS(=O)(=O)c2cccc(N)n2)cn1 [Compound 1491, N-[(6-amino-2-pyridyl)sulfonyl]-2-(6-isopropoxy-3-pyridyl)-6-[(4R)-2,2,4-trimethylpyrrolidin-1-yl]pyridine-3-carboxamide]"
8,+++ (“+++” means <3 uM),"CC1CN(c2nc(C(C)(C)C)c(C3=CCOCC3)cc2C(=O)NS(=O)(=O)c2cccc(N)n2)C(C)(C)C1 (stereo not shown) [Compound 1495, N-[(6-amino-2-pyridyl)sulfonyl]-6-tert-butyl-5-(3,6-dihydro-2H-pyran-4-yl)-2-(2,2,4-trimethylpyrrolidin-1-yl)pyridine-3-carboxamide]"
9,+++ (“+++” means <3 uM),"C[C@@H]1CN(c2nc(C3CCCCO3)ccc2C(=O)NS(=O)(=O)c2cccc(N)n2)C(C)(C)C1 (stereo partly drawn) [Compound 1500, N-[(6-amino-2-pyridyl)sulfonyl]-6-tetrahydropyran-2-yl-2-[(4S)-2,2,4-trimethylpyrrolidin-1-yl]pyridine-3-carboxamide]"
10,++ (“++” means between 3 uM and 10 uM),"C[C@@H]1CN(c2nc(C3CCCCO3)ccc2C(=O)NS(=O)(=O)c2ccc[nH]c2=O)C(C)(C)C1 (stereo partly drawn) [Compound 1503, N-[(2-oxo-1H-pyridin-3-yl)sulfonyl]-6-tetrahydropyran-2-yl-2-[(4S)-2,2,4-trimethylpyrrolidin-1-yl]pyridine-3-carboxamide]"
11,+++ (“+++” means <3 uM),"C[C@@H]1CN(c2nc(-c3ccc(OCC(C)(C)C)nc3)ccc2C(=O)NS(=O)(=O)c2cccc(N)n2)C(C)(C)C1 [Compound 1504, N-[(6-amino-2-pyridyl)sulfonyl]-6-[6-(2,2-dimethylpropoxy)-3-pyridyl]-2-[(4S)-2,2,4-trimethylpyrrolidin-1-yl]pyridine-3-carboxamide]"
12,+++ (“+++” means <3 uM),"CC(C)c1ccc(C(=O)NS(=O)(=O)c2cccc(N)n2)c(N2C[C@@H](C)CC2(C)C)n1 [Compound 1505, N-[(6-amino-2-pyridyl)sulfonyl]-6-isopropyl-2-[(4S)-2,2,4-trimethylpyrrolidin-1-yl]pyridine-3-carboxamide]"
13,++ (“++” means between 3 uM and 10 uM),"CCc1ccc(C(=O)NS(=O)(=O)c2cccc(N)n2)c(N2C[C@@H](C)CC2(C)C)n1 [Compound 1507, N-[(6-amino-2-pyridyl)sulfonyl]-6-ethyl-2-[(4S)-2,2,4-trimethylpyrrolidin-1-yl]pyridine-3-carboxamide]"
